The values below come from patent publication US20170100353A1, “COMPOSITIONS AND METHODS THAT TARGET OLFACTORY RECEPTORS FOR REGULATION OF BREATHING” (The Board of Trustees of the Leland Stanford Junio, priority 2015, published 2017).

The target in test [1] is T1, OR51E1 (Homo sapiens, UniProt Q8TCB6).
T1 sequence (Q8TCB6 1-318): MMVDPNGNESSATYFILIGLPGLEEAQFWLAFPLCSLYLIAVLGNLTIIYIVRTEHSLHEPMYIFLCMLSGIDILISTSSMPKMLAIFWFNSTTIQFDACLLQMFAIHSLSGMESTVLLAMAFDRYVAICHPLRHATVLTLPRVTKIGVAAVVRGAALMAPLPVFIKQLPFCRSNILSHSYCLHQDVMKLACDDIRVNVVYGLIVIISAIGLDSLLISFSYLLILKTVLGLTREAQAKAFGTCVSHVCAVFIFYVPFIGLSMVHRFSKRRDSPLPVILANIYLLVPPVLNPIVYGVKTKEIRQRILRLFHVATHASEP
The conditions noted are these: screen of 93 named compounds; cited from earlier work.

For test [2], the target named is T2, Olfr78 (Mus musculus, UniProt Q8VBV9).
T2 construct: host or cells: HEK293T
T2 sequence (Q8VBV9 1-320): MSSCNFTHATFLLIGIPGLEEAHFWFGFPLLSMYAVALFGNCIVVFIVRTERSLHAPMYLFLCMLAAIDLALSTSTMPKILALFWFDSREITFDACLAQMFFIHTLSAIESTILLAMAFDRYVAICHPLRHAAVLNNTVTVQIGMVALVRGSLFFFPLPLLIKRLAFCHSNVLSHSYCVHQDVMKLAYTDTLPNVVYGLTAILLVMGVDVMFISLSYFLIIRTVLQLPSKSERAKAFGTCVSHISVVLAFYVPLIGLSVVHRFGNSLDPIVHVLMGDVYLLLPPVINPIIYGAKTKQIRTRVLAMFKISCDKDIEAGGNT
Nature of the test: Luciferase dual reporter assay of Olfr78 expressed in HEK293T cells. The format is cell-based. From the text: pCl-Rho-Olfr78 plasmid construction and expression. The pCl-Rho-Olfr78 plasmid was made by PCR amplifying the Olfr78 coding region from a pCMV6-Olfr78 plasmid (OriGene) using forward primer 5′-[…]-3′ and reverse primer 5′-[…]-3′, adding EcoR1 and Not1 restriction sites. The Olfr78 PCR fragment was then digested with EcoR1 and Not1 and cloned into a pCl-Rho backbone cut from a pCl-Rho-Olfr62 plasmid (gift of Hiroaki Matsunami, Duke University). […] Cytoplasmic GFP (co-transfection marker) was expressed from a TBC1 D25::eGFP plasmid (gift of Suzanne Pfeffer, Stanford University).
Luciferase assay. HEK293T cells were grown and seeded into 96 well plates. On the next day, cells were transfected with RTP1S, Gα15-olf (gifts of Hiroaki Matsunami, Duke University), pCMV6-Ric8b (Origene), pCRE-Luc (Agilent), and pSV40-RL (Promega) plasmids and either pCl-Rho-Olfr78 or pCl (Promega). The Rho tag on Olfr78 and RTP1S were used to enhance localization of Olfr78 to the plasma membrane. Gα15-olf and Ric8b were included as downstream effectors that couple to ORs to increase cAMP production upon OR activation. Two transcriptional luciferase reporters, one constitutive (Renilla, pSV40-RL) and one inducible by cAMP (firefly, pCRE-Luc) were transfected to report increased cAMP levels upon OR activation.
Five hours after transfection, media was decanted and replaced with 50 μL/well MEM without phenol red (Life Technologies). After thirty minutes, 25 μL of chemicals were added to each well to achieve the indicated final concentrations, and cells were incubated for 2 hours. Sodium salts of chloride, L-lactate, propionate, and acetate (Sigma) were used.
Reagents to detect firefly and Renilla luciferase activity (Dual-Glo Luciferase Assay System, Promega) were added at 20 μl/well. Luminescence was measured using an Infinite M1000 (Tecan) microplate reader and data acquired by Magellan Data Analysis Software (Tecan). Two readings were collected for each plate and luciferase reagent, and firefly to Renilla ratios were averaged. Data was from experiments conducted over three days. For dose response curves in FIG. 4a and FIGS. 11d-f, ratios were normalized to the highest and lowest average values for a given condition across all plates on each day.
Data analysis and statistics. Data analysis and statistical tests were performed using Microsoft Excel and GraphPad software. GraphPad Prism 6 was used to fit dose-response curves using a variable slope model and to calculate EC50 values. All data are biological replicates, and quantitative data with error bars are presented as mean±standard error of the mean (s.e.m.) with the exception of FIG. 11c, which is presented as percent±standard error of percentage. […] No statistical method was used to predetermine sample size.
On the technique in general: A reporter such as luciferase makes a cellular process visible.

Test [3] deals with carotid body glomus cells. Nature of the test: Calcium imaging of GCaMP3-expressing carotid body glomus cells. The format is cell-based, mouse. The conditions noted are these: lactate 30 mM, cyanide 2 mM; whole carotid bodies and slice preparations; hyperoxia.
The test system of the next test is carotid body. Nature of the test: Carotid sinus nerve recordings (carotid body sensory activity). On the set-up: species or system mouse. The conditions noted are these: 30 mM, PO2=625 mmHg; for Carotid sinus nerve activity, Olfr78-/- mutants: Olfr78-/- mutant nerves; for Carotid sinus nerve activity, Olfr78+/+: wild-type Olfr78+/+ preparations.
The target of test [4] is T2, Olfr78. The conditions noted are these: cited from earlier work.
The target in test [5] is T3, OR51E2 (Homo sapiens, UniProt Q9H255).
T3 construct: host or cells: HEK293T
T3 sequence (Q9H255 1-320): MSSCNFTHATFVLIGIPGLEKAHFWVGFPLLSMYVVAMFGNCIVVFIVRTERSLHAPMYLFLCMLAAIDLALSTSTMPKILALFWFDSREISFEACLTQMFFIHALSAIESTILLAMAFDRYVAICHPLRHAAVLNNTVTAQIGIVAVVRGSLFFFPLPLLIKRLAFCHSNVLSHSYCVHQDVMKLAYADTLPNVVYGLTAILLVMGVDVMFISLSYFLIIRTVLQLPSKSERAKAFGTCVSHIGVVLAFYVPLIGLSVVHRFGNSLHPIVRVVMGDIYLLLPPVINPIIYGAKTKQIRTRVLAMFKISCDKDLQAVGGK
The conditions noted are these: cited from earlier work.

Test [6] concerns the target T3, OR51E2. The conditions noted are these: screen of 93 named compounds; cited from earlier work.
The target in test [7] is T1, OR51E1. The note with it: another study and a more recent study; cited from earlier work.
For the next test, the target named is Olfr558 (Mus musculus, UniProt Q8VGZ7). The conditions noted are these: screen of 93 named compounds; cited from earlier work.
Sequence of Olfr558 (Q8VGZ7 entry or part of it): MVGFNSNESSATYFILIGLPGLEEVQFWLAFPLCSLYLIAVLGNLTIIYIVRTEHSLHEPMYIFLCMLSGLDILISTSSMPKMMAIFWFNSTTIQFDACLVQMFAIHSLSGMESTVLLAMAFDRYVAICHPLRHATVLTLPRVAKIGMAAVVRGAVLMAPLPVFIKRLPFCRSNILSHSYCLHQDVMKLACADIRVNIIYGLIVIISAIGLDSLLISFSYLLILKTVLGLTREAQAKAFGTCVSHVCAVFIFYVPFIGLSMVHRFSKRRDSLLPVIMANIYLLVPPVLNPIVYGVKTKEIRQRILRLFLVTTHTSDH
[8] abbreviates: heterologous expression in HEK293T cells, same range of concentrations.
Setting [9] is: study looking at Olfr78 and OR51E2.

Where two headings read alike, the source gives them in different places.

In general, EC50 refers to the concentration that produces a half-maximal response.

Regarding `CCCCOC(=O)C(C)OC(=O)CCC` (stereo not drawn) [butyl butylryllactate], the “Agonist activity at OR51E1 in chemical screen” value at OR51E1 [1] was “activated”.

As for `CC(O)C(=O)O` (stereo not drawn) [lactate, 2-hydroxypropanoic acid], the “Activation of Olfr78 (in words)” value at Olfr78 [2] (setting [8]) is listed as “activated Olfr78 in a dose-dependent manner”. For the same compound, the EC50 at Olfr78 [2] (heterologous expression in HEK293T cells, sodium salts, 2 hours stimulation, read-out: EC50 for activation of Olfr78) came out at 4 mM. Moreover, the “Calcium response of glomus cells” value in test [3] is given as “induced calcium transients”. In the test on carotid body, the “Carotid sinus nerve activity, Olfr78-/- mutants” value is “little response” and the “Carotid sinus nerve activity, Olfr78+/+” value was “increased carotid sinus nerve activity”.

Take `CCC(=O)O` [propionate, propionic acid]: the “Activation of Olfr78 (in words)” value on Olfr78 [2] (setting [8]) is given as “stimulated Olfr78”. In the test with carotid body, the “Carotid sinus nerve activity, Olfr78-/- mutants” value is listed as “little effect” and the “Carotid sinus nerve activity, Olfr78+/+” value is on record as “stimulate carotid sinus nerve activity”. For the same compound, the “Agonist activity at Olfr78” value at Olfr78 [4] (setting [9]) is given as “agonists”. Moreover, on OR51E2 [5] (setting [9]), the “Agonist activity at OR51E2” value is “agonists”. The “Agonist activity at OR51E2 in chemical screen” value on OR51E2 [6] is “specifically activated”. Besides, on OR51E1 [7], the “Agonist activity at OR51E1” value is reported as “activated”.

On to `CCC(C)CC(=O)O` (stereo not drawn) [3-methyl-valeric acid], for which, at OR51E1 [7], the “Agonist activity at OR51E1” value was “agonists”.

Take `CC(C)CCC(=O)O` [4-methyl-valeric acid]: the “Agonist activity at OR51E1” value at OR51E1 [7] was “agonists”.

In the case of `CC(C)CC(=O)O` [isovaleric acid], the “Agonist activity at OR51E1” value at OR51E1 [7] is “activated”.

In the case of `O=CO` [formate], the “Agonist activity at Olfr78” value at Olfr78 [4] is recorded as “not”. Besides, at OR51E2 [5], the “Agonist activity at OR51E2” value is given as “not”.

For the compound `Cl` [Chloride ion, chloride], on Olfr78 [2], the “Activation of Olfr78 (in words)” value was “no effect”.

With `CCCCCCCCC(=O)O` [nonanoic acid], the “Agonist activity at OR51E1 in chemical screen” value on OR51E1 [1] is recorded as “activated”. Besides, the “Agonist activity at Olfr558 in chemical screen” value on Olfr558 is “activated”. For the same compound, the “Agonist activity at OR51E1” value on OR51E1 [7] is reported as “activated”.

As to `CC(=O)O` [acetate], the “Activation of Olfr78 (in words)” value at Olfr78 [2] (setting [8]) is recorded as “stimulated Olfr78”. In the test with carotid body, the “Carotid sinus nerve activity, Olfr78-/- mutants” value is given as “little effect” and the “Carotid sinus nerve activity, Olfr78+/+” value is reported as “stimulate carotid sinus nerve activity”. At Olfr78 [4] (setting [9]), the “Agonist activity at Olfr78” value is “agonists”. On OR51E2 [5] (setting [9]), the “Agonist activity at OR51E2” value is given as “agonists”.
